Reference: patent US11679168B2, “Caspase-3-triggered molecular self-assembling PET probes and uses thereof” (The Board of Trustees of the Leland Stanford Junior …, priority 2018, dated 2023)
Peptide text beside a SMILES is read from it. * marks the point of attachment. Cbz = O=C(OCc1ccccc1)*; CH2F = FC*

Experiments:
[1] = L-cysteine with CBT; reported in Reference 13; cited from earlier work
[2] = Condensation kinetics of aminothiols with CBT (HPLC assay); format: physicochemical; conditions: substituted cysteine analogues with CBT, FIG. 50B
Description: General Methods for Measuring Kinetics of Condensation Reactions Between Aromatic Nitriles and Aminothiols: The 2nd order rate constants for condensation reactions between aromatic nitriles and aminothiols were measured by using HPLC assays. To solutions of aromatic nitriles (100 μM) in phosphate buffered saline (PBS) (1×, pH=7.4) were added aminothiol (1.0 equiv.), TCEP (2.0 equiv.) and NaHCO3 (3 equiv.). The reaction solutions were kept at room temperature (23° C.) and monitored by HPLC at different time points. The conversion rates were calculated using the peak integrals of aromatic nitriles and the condensation products at 254 nm. Based on 2nd order reaction law, 1/[aromatic nitrile] was plotted against time and the slope of the linear regression result gives the 2nd order rate constant.

[3] = test system: caspase-3 activity in H460 cells; experiment: Confocal imaging of cisplatin-treated H460 cells with C-SNAF4-Cy5; format: cell-based, human; conditions: 50 μM
Description: Confocal Microscopy Imaging of Cisplatin-treated H460 Cells With C-SNAF4-Cy5: NCI-H460 cells at 70% confluency were either left naïve or treated with cisplatin (10 μM) for 24 hours. After removal of the medium, cells were incubated with 2 μM C-SNAF4-Cy5 at 37° C. for 24 hours. For the inhibition study, cells were first incubated with pan-caspase inhibitor Z-VAD-fmk (50 μM, 30 min) before incubation with C-SNAF4-Cy5.

caspase-3 = biological target: T1, caspase-3 (Homo sapiens, UniProt P42574); experiment: Nanoaggregation of [19F]-C-SNAT4 after caspase-3 activation (DLS, TEM); format: biochemical
T1 construct: before and after addition of active caspase-3 (Casp3) enzyme; purchased Sigma; host or cells: E. coli
T1 sequence (P42574 29-175 limits assumed): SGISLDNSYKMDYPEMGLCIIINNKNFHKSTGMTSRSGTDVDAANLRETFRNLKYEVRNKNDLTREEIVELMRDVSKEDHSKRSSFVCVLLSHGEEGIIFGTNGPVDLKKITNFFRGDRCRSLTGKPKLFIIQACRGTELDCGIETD
T1 sequence (P42574 176-277 limits assumed): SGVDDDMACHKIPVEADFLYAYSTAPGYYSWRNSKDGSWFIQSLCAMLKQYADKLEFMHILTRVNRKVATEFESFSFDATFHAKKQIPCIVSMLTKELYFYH
Description: FIG. 1C illustrates the TEM images of [^19F]-C-SNAT4 before and after addition of active caspase-3 (Casp3) enzyme. [^19F]-C-SNAT4 (20 μM) was incubated with caspase-3 (2×10^−3U mL^−1, human, recombinant from E. coli, Sigma) in caspase buffer at 37° C. overnight.
FIG. 12 illustrates in vitro validation and nanoaggregation characterization of [^19F]-C-SNAT4. [^19F]-C-SNAT4 and formation of cycl-[^19F]-SNAT4 after [^19F]-C-SNAT4 incubated with caspase-3 were analyzed by (A) HPLC, (B) DLS of [^19F]-C-SNAT4 without and with caspase-3 incubation. [^19F]-C-SNAT4 (20 μM) was incubated with caspase-3 (2×10^−3U mL^−1, human, recombinant from E. coli, Sigma) in caspase buffer (50 mM HEPES, 100 mM NaCl, 1 mM EDTA, 10 mM TCEP, 10% glycerol and 0.1% CHAPS at pH 7.4) at 37° C. overnight.

H460 cells = experiment: MTS cell viability assay in H460 cells; format: cell-based, human
Description: (§1) FIG. 13 illustrates cellular toxicity analysis in H460 and H1299 cells. Cells were incubated at different concentration of [^19F]-C-SNAT4 over 24 hours. The viability of cells was measured using an MTS assay.
FIG. 14 illustrates a Cisplatin dose response curves were assessed in H460 cells by MTS assay. The curves generated by GraphPad Prism software.
FIG. 36A illustrates the toxicity of C-SNAF4-Cy5 in heathy and apoptotic NCI-H460 measured with MTS assay (37° C., 24 h) in heathy H460 cells.
FIG. 36B illustrates the toxicity of C-SNAF4-Cy5 in H460 cells treated with cisplatin (1 μM, 24 hours) followed by incubation with C-SNAF4-Cy5 (37° C., 24 h).
Cell study: All cell lines were assessed to be pathogen-free prior to use in this study. […] Cell viability was assessed with CellTiter 96.RM AQueous One Solution Cell Proliferation Assay (MTS) kit from Promega (Madison, Wis., USA). […] After 60 min of incubation at 37° C., the absorbance was read at 490 nm with a 96 well plate reader from BMG LABTECH GmbH (Ortenberg, Germany).

H1299 cells = experiment: MTS cell viability assay in H1299 cells; format: cell-based, human; conditions: H1299, up to 100 μM, 24 hours
Description: as §1
Cell study: All cell lines were assessed to be pathogen-free prior to use in this study. Human H460 and H1299 lung adenocarcinoma cells non-small cell lung cancer H460 (ATCC) and H1299 (ATCC) were cultured in Dulbecco's modified Eagle's medium (DMEM) (Invitrogen), supplement with 10% v/v fetal bovine serum (Life Technologies Inc.) and 1% v/v penicillin-streptomycin (100 IU/ml, […]; Life Technologies Inc.) at 37° C. in a humidified atmosphere maintained at 5% CO2. X-radiation was performed with an X-ray generator (0.2 mm Cu and 1 mm Al filter, 150 kV, Hitachi). The irradiation was carried out at room temperature at a dose rate of 0.2 Gy/min. Cell viability was assessed with CellTiter 96.RM AQueous One Solution Cell Proliferation Assay (MTS) kit from Promega (Madison, Wis., USA). Briefly, 100 μl aliquots of the treated or untreated cell suspension were seeded into 96-well polystyrene tissue culture plates and 20 μl of assay reagent was added to each well. After 60 min of incubation at 37° C., the absorbance was read at 490 nm with a 96 well plate reader from BMG LABTECH GmbH (Ortenberg, Germany).

H460 tumor = experiment: Caliper measurement of H460 tumor volumes; format: in vivo, mice; conditions: H460, high dose (9 mg/kg every other day x3, i.v.), day 13 after implantation
Description: (§2) FIG. 5B illustrates caliper measurement of H460 and H1299 tumor volumes in saline and drug-treated mice. Measurements are time after cell implantation, with high dose of cisplatin-treated (Intravenous injection, 9 mg/kg every other day for three times) in H460 and in H1299 tumor-bearing mice as arrow indicated (arrow). n=5 for each group.
(§3) Animal model and probe administration: For subcutaneous tumor models, H460 or H1299 (2×10^6 cells in 100 μl of PBS) were injection subcutaneously on the back of female nu/nu nude mice (aged 6 to 8 weeks; Charles River Laboratories). Tumor dimensions were measured periodically using a caliper (by the same researcher), with tumor volumes calculated by the following equation: volume=a×b×c/2, where a, b, and c represent three orthogonal axis of the tumor. Treatment-response analysis was performed 24 h after drug treatment. For all other experiments, animals were culled 26 h after therapy and tissues excised for analysis. For chemotherapy mouse model, tumors were grown to about 150 mm^3, and then treatment that consisted of cisplatin (Sigma-Aldrich; Low dose: 3 mg/kg; high dose: 9 mg/kg) or saline was initiated through intravenous administration, every other day for three times. Total mouse body weight and tumor size were measured every other day. Treat or left untreated. […]

H1299 tumor = experiment: Caliper measurement of H1299 tumor volumes; format: in vivo, mice; conditions: H1299, high dose (9 mg/kg every other day x3, i.v.), day 21 after implantation
Description: as §2, §3

N[C@@H](CS)C(=O)O [L-cysteine]
2nd order rate constant k [1]: 2.9 M⁻¹ s⁻¹
second-order reaction rate [2]: 3.2 M⁻¹ s⁻¹

COC(=O)C[C@H](NC(=O)[C@H](C)NC(=O)[C@@H](NC(=O)OCc1ccccc1)C(C)C)C(=O)CF [Z-VAD-fmk] (Cbz-Val-Ala-Asp(OMe)-CH2F)
effect on C-SNAF4-Cy5 fluorescence [3]: Fluorescence abolishment

CCSSCC(NC(=O)C(CC(=O)O)NC(=O)C(NC(=O)C(CCC(=O)O)NC(=O)C(CC(=O)O)NC(C)=O)C(C)C)C(=O)NCC(=O)NC(Cc1cn(CCOCCOCCOCCF)nn1)C(=O)NCc1ccc(C(=O)NCCCOc2cnc(C#N)nc2)cc1 (stereo not drawn) [[^19F]-C-SNAT4]
average size of nanoparticles (DLS) (caspase-3): around 200 nm
cytotoxicity (H460 cells; H460, up to 100 μM, 24 hours): no toxicity
cytotoxicity (H1299 cells): no toxicity

N.N.[Cl][Pt][Cl] [cisplatin]
tumor volume (H460 tumor): 690.8±88.6 mm^3
tumor volume (H1299 tumor): 1348.5±356.0 mm^3
IC50 (H460 cells; H460, MTS assay, read-out: half-maximal inhibitory concentration (IC50)): 9.51 µM
